From US7842808B2, “Anti-migraine spirocycles” (Bristol-Myers Squibb Company, priority 2002, dated 2010)

Columns and labels:
[1] = biological target: T1, human CGRP receptor (SK-N-MC cells) (Homo sapiens, UniProt O60894+Q16602); test: Schild analysis of CGRP stimulated cAMP production; assay type: cell-based; settings: for Kb: Schild analysis, dissociation constant of the antagonist, read-out: Kb; for slope: Schild plot slope
T1 construct: SK-N-MC cells that endogenously express the human CGRP receptor; endogenous in cells; host or cells: SK-N-MC cells
T1 sequence (Q16602 23-461): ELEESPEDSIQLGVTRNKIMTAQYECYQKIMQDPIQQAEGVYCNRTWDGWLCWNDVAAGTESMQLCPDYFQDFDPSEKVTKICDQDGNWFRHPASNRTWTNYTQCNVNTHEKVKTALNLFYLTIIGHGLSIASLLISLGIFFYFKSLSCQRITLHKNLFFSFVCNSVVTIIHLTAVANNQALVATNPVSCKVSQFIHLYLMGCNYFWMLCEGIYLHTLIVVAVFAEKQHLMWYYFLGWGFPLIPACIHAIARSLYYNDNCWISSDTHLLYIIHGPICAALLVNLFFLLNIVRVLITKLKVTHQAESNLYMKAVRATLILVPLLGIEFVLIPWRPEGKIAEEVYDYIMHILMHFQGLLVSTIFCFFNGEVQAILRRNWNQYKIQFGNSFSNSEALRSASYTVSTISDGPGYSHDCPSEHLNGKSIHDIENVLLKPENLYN
T1 sequence (O60894 27-148): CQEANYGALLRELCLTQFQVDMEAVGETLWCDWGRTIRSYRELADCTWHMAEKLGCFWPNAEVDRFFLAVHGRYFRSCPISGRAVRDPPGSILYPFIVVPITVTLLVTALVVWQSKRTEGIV
Experimental: Functional Antagonism. Antagonism of the compounds of invention was determined by measuring the formation of cyclic AMP (adenosine 3′5′-cyclic monophosphate) in SK-N-MC cells that endogenously express the human CGRP receptor. CGRP receptor complex is coupled with Gs protein and CGRP binding to this complex leads to the cyclic AMP production via Gs—dependent activation of an adenylate cyclase (Juaneda C et al., TiPS, 2000; 21:432-438; incorporated by reference herein). Consequently, CGRP receptor antagonists inhibit CGRP-induced cyclic AMP formation in SK-N-MC cells (Doods H et al., Br J Pharmacol, 2000; 129(3):420-423); incorporated by reference herein). For cyclic AMP measurements SK-N-MC cells were incubated with 0.3 nM CGRP alone or in the presence of various concentrations of the compounds of invention for 30 min at room temperature. Compounds of invention were pre-incubated with SK-N-MC cells for 15 min before the addition of CGRP to allow receptor occupancy (Edvinsson et al., Eur J Pharmacol, 2001, 415:39-44; incorporated by reference herein). Cyclic AMP was extracted using the lysis reagent and its concentration was determined by radioimmunoassay using RPA559 cAMP SPA Direct Screening Assay Kit (Amersham Pharmacia Biotech). IC50 values were calculated using Excel fit.
Schild Analysis. Schild analysis can be used to characterize the nature of antagonism of the compounds of invention. The dose response of CGRP stimulated cAMP production was generated either with CGRP alone, or in the presence of various concentrations of compounds of invention. The antagonist dose is plotted as X against the dose ratio (defined as IC50 of agonist with the presence of the compounds divided by the IC50 of the agonist alone) minus 1 as Y. Linear regression was then performed with both X and Y axis log-transformed. […] Kb is the dissociation constant of the antagonist.

[2] = biological target: T1, human CGRP receptor (SK-N-MC cells); test: Cyclic AMP Assay, functional antagonism of CGRP-induced cyclic AMP formation; assay type: cell-based; settings: SK-N-MC cells, 0.3 nM CGRP; read-out: cAMP Function IC50
Summary of the method: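 SK-N-MC cells, which endogenously express human CGRP receptor, stimulated with 0.3 nM CGRP with or without compound for 30 min at room temperature. Cellular cAMP extracted by lysis and quantified by SPA radioimmunoassay; IC50 from inhibition of CGRP-induced cAMP.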

[3] = biological target: T2, CGRP receptor (SK-N-MC cell membranes) (Homo sapiens, UniProt O60894+Q16602); test: CGRP Binding Assay ([125I]-CGRP radioligand binding, SK-N-MC homogenate); settings: displacement of [125I]-CGRP, SK-N-MC homogenate; read-out: CGRP binding IC50
T2 construct: endogenous in cells; host or cells: SK-N-MC cells (membrane homogenate)
T2 sequence (Q16602 23-461): as the sequence (Q16602 23-461) above
T2 sequence (O60894 27-148): as the sequence (O60894 27-148) above

[4] = system: human cerebral vessels (CGRP-induced dilation); test: Ex Vivo Human Cerebral Artery Assay, reversal of CGRP-induced relaxation; settings: reversal of 1 nM hCGRP-induced relaxation, vessels pre-contracted with 10 mM KCl
Source text: Rationale and Overview. To provided direct evidence of the ability for novel compounds to reverse CGRP-induced dilation in human cerebral vessels, an ex vivo assay was design. Briefly, isolated vessel rings were mounted in a tissue bath where vessels were pre-contracted with potassium chloride (KCl) and fully dilated with hCGRP, then this relaxation was reversed by the cumulative addition of CGRP-receptor antagonists (complete details follow).
Tissue Samples. Autopsy samples of human arteries were obtained from vendors (ABS Inc. or NDRI). All vessels were transported on ice-cold HEPES buffer (composition in mM: NaCl 130, KCl 4, KH2PO4 1.2, MgSO4 1.2, CaCl2 1.8, Glucose 6, NaHCO3 4, HEPES 10, EDTA 0.025). Upon receipt, the vessels were placed in cold Kreb's buffer (composition in mM: NaCl 118.4, KCl 4.7, KH2PO4 1.2, MgSO4 1.2, CaCl2 1.8, Glucose 10.1, NaHCO3 25) saturated with carbogen (5% CO2 and 95% oxygen).
Isolated Tissue Baths. The vessels were cleaned of connective tissues and cut into cylindrical segments of 4-5 mm in length. The vessels were then mounted in tissue baths between two stainless steel hooks; one of which is fixed and the other of which was connected to a force displacement transducer. The vessel tension was continuously recorded using a data acquisition system (Powerlab, ADInstruments, Mountain View, Calif.) connected to the transducer. The tissue baths containing Krebs buffer and mounted vessels were temperature (37° C.) and pH (7.4) controlled with continuous bubbling of carbogen. The artery segments were allowed to equilibrate for about 30-45 min until a stable resting tone was achieved. Prior to the assay, vessels were primed (conditioned) with 100 mM KCl and subsequently washed. The vessels were pre-contracted with 10 mM KCl and fully dilated with 1 nM hCGRP. Concentration-response curves to CGRP-receptor antagonists were performed by the cumulative addition of drugs in half log units in fully dilated vessels. At each concentration, the effects of the drugs were expressed as % reversal of CGRP-induced relaxation in each vessel. The actual assay and data analysis were performed for each vessel individually, fitting the concentration-response data to a four parameter logistic function by non-linear regression analysis, to estimate the EC50 values.

| Kb [1] [nM] | slope [1] | IC50 [2] [nM] | IC50 [3] [nM] | EC50 [4] [nM] | Structure (SMILES) |
| --- | --- | --- | --- | --- | --- |
| 0.018 | 1.2 | < 10 | < 10 | < 10 | O=C(NC(Cc1cc(Cl)c2[nH]ncc2c1)C(=O)N1CCC(N2CCCCC2)CC1)N1CCC(N2Cc3ccccc3NC2=O)CC1 (racemic) [Example 43, (±)-4-(2-Oxo-1,4-dihydro-2H-quinazolin-3-yl)-piperidine-1-carboxylic acid[2-[1,4′]bipiperidinyl-1′-yl-1-(7-chloro-1H-indazol-5-ylmethyl)-2-oxo-ethyl]-amide] |
| 0.1 | 0.93 | < 10 | < 10 | < 10 | O=C(N[C@H](Cc1ccc2[nH]c(=O)oc2c1)C(=O)N1CCC(N2CCCCC2)CC1)N1CCC(N2Cc3ccccc3NC2=O)CC1 [Example 47, (R)-4-(2-Oxo-1,4-dihydro-2H-quinazolin-3-yl)-piperidine-1-carboxylic acid[2-[1,4′]bipiperidinyl-1′-yl-2-oxo-1-(2-oxo-2,3-dihydro-benzooxazol-6-ylmethyl)-ethyl]-amide] |
| 1 | 0.8 | 10 to 100 | < 10 | < 10 | Cc1cc(CC(NC(=O)N2CCC(N3Cc4ccccc4NC3=O)CC2)C(=O)N(C)C)cc2cn[nH]c12 (racemic) [Example 18, (±)-4-(2-Oxo-1,4-dihydro-2H-quinazolin-3-yl)-piperidine-1-carboxylic acid[1-dimethylcarbamoyl-2-(7-methyl-1H-indazol-5-yl)-ethyl]-amide] |
| – | – | 100 to 1000 | 10 to 100 | 10 to 100 | COC(=O)C(CC(=O)N1CCC(N2Cc3ccccc3NC2=O)CC1)Cc1cc(C)c2[nH]ncc2c1 (racemic) [Example 67, (±)-2-(7-Methyl-1H-indazol-5-ylmethyl)-4-oxo-4-[4-(2-oxo-1,4-dihydro-2H-quinazolin-3-yl)-piperidin-1-yl]-butyric acid methyl ester] |
| – | – | < 10 | < 10 | < 10 | Cc1cc(CC(CC(=O)N2CCC3(CC2)OC(=O)Nc2ccccc23)C(=O)N2CCC(N3CCCCC3)CC2)cc2cn[nH]c12 (racemic) [Example 68, (±)-1-[1,4′]Bipiperidinyl-1′-yl-2-(7-methyl-1H-indazol-5-ylmethyl)-4-[1′,2′-dihydro-2′-oxospiro-[4H-3′,1-benzoxazine-4,4′-piperidinyl]-butane-1,4-dione] |
| – | – | < 10 | < 10 | < 10 | Cc1cc(CC(CC(=O)N2CCC(N3Cc4ccccc4NC3=O)CC2)C(=O)N(C)C)cc2cn[nH]c12 (racemic) [Example 72, (±)-N,N-Dimethyl-2-(7-methyl-1H-indazol-5-ylmethyl)-4-oxo-4-[4-(2-oxo-1,4-dihydro-2H-quinazolin-3-yl)-piperidin-1-yl]-butyramide] |
| – | – | 10 to 100 | 100 to 1000 | 100 to 1000 | O=C(C[C@H](Nc1ccc2[nH]ccc2c1)C(=O)N1CCC(N2CCCCC2)CC1)N1CCC(N2Cc3ccccc3NC2=O)CC1 [Example 86, (L)-1-[1,4′]Bipiperidinyl-1′-yl-2-(1H-indol-5-ylamino)-4-[4-(2-oxo-1,4-dihydro-2H-quinazolin-3-yl)-piperidin-1-yl]-butane-1,4-dione] |
| – | – | < 10 | < 10 | < 10 | Cc1cc(CC(NC(=O)N2CCC3(CC2)OC(=O)Nc2ccccc23)C(=O)N2CCC(N3CCCCC3)CC2)cc2cn[nH]c12 (racemic) [Example 25, (±)-1-(7-Methyl-1H-indazol-5-ylmethyl)-2-[1,4-bipiperidin]-1-yl-2-oxoethyl]-1′,2′-dihydro-2′-oxospiro-[4H-3′,1-benzoxazine-4,4′-piperidine]-1-carboxamide] |
| – | – | < 10 | < 10 | < 10 | Cc1cc(CC(NC(=O)N2CCC(N3Cc4ccccc4NC3=O)CC2)C(=O)N2CCCC2)cc2cn[nH]c12 (racemic) [Example 20, (±)-4-(2-Oxo-1,4-dihydro-2H-quinazolin-3-yl)-piperidine-1-carboxylic acid[1-(7-methyl-1H-indazol-5-ylmethyl)-2-oxo-2-pyrrolidin-1-yl-ethyl]-amide] |
| – | – | < 10 | < 10 | < 10 | Cc1cc(CC(NC(=O)N2CCC(N3Cc4ccccc4NC3=O)CC2)C(=O)N2CCN(C)CC2)cc2cn[nH]c12 (racemic) [Example 19, (±)-4-(2-Oxo-1,4-dihydro-2H-quinazolin-3-yl)-piperidine-1-carboxylic acid[1-(7-methyl-1H-indazol-5-ylmethyl)-2-(4-methyl-piperazin-1-yl)-2-oxo-ethyl]-amide] |
| – | – | 10 to 100 | 10 to 100 | < 10 | Cc1cc(CC(CC(=O)N2CCC3(CC2)OC(=O)Nc2ccccc23)C(=O)N(C)C)cc2cn[nH]c12 (racemic) [Example 76, (±)-N,N-Dimethyl-2-(7-methyl-1H-indazol-5-ylmethyl)-4-oxo-4-[1′,2′-dihydro-2′-oxospiro-[4H-3′,1-benzoxazine-4,4′-piperidinyl]-butyramide] |
| – | – | < 10 | < 10 | < 10 | Cc1cc(CC(NC(=O)N2CCC3(CC2)NC(=O)Nc2ccccc23)C(=O)N2CCC(N3CCCCC3)CC2)cc2cn[nH]c12 (racemic) [Example 23, (±)-1-(7-Methyl-1H-indazol-5-ylmethyl)-2-[1,4-bipiperidin]-1-yl-2-oxoethyl]-2′,3′-dihydro-2′-oxospiro-[piperidine-4,4′-(1H)-quinazoline]-1-carboxamide] |
| 3 | 0.92 | < 10 | < 10 | – | O=C(NC(Cc1ccc2[nH]ccc2c1)C(=O)N1CCC(N2CCCCC2)CC1)N1CCC(N2Cc3ccccc3NC2=O)CC1 (racemic) [Example 5, (±)-4-(2-Oxo-1,4-dihydro-2H-quinazolin-3-yl)-piperidine-1-carboxylic acid[2-[1,4′]bipiperidinyl-1′-yl-1-(1H-indol-5-ylmethyl)-2-oxo-ethyl]-amide] |
| – | 1.4 | – | < 10 | – | CCc1cc(CC(NC(=O)N2CCC(N3Cc4ccccc4NC3=O)CC2)C(=O)N2CCC(N3CCCCC3)CC2)cc2cn[nH]c12 (racemic) [Example 45, (±)-4-(2-Oxo-1,4-dihydro-2H-quinazolin-3-yl)-piperidine-1-carboxylic acid[2-[1,4′]bipiperidinyl-1′-yl-1-(7-ethyl-1H-indazol-5-ylmethyl)-2-oxo-ethyl]-amide] |
